Measurements taken from PubChem BioAssay (NCI).
Values joined by “and” are separate entries in the source; they are usually repeats but may differ in a detail not shown here. Equal entries are not always repeated.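 Cultured in 96-well plates, cells were exposed to test compound for 48 hours across five concentrations. At the GI50, growth is halved. At the TGI there is no net growth.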 Where a SMILES comes first, the peptide text is derived from it.

How the values were obtained:
Test in all cases: inhibition of tumour cell growth, NCI panel, 48 h
[1] = system: COLO 205 colon
[2] = system: EKVX NSCLC
[3] = system: K-562 leukemia
[4] = system: ACHN renal
[5] = system: OVCAR-5 ovarian
[6] = system: MDA-N
[7] = system: SF-539 CNS
[8] = system: CCRF-CEM leukemia
[9] = system: 786-0 renal
[10] = system: OVCAR-4 ovarian
[11] = system: RPMI-8226 leukemia

| SMILES | TGI [1] [µM] | TGI [2] [µM] | TGI [3] [µM] | TGI [4] [µM] | TGI [5] [µM] | TGI [6] [µM] | TGI [7] [µM] | TGI [8] [µM] | TGI [9] [µM] | TGI [10] | TGI [11] [µM] | GI50 [7] [µM] | GI50 [3] [µM] | GI50 [10] [µM] |
| --- | --- | --- | --- | --- | --- | --- | --- | --- | --- | --- | --- | --- | --- | --- |
| CC1C(c2ccc(F)cc2)c2cc3c(cc2OC1N1CCCC1)OCO3 (stereo not given) | > 100 | > 100 | > 100 | > 100 | > 100 | > 100 | > 100 | > 100 | > 100 |  |  |  |  |  |
| CNC(=S)/C(=N\Nc1nc[nH]c1C(N)=O)C(N)=S | 41.1 | > 100 |  | 61.8 | > 100 | > 63 | > 81.3 |  | > 100 | > 100 µM | 55.7 |  |  |  |
| CCN1CC2=C(N=c3s/c(=C\c4ccc(Cl)cc4)c(=O)n3C2c2ccc(Cl)cc2)/C(=C/c2ccc(Cl)cc2)C1 (stereo not given) | > 100 | > 100 | > 100 | > 100 | > 100 | > 100 |  | > 100 | 55.2 | > 100 µM | > 100 |  |  |  |
| CCN(CC)c1ccc(/C=C(\C#N)c2nc(N)nc(N3N=C(C)CC3(C)C)n2)cc1 | > 100 | > 76.2 | > 68.7 | 27.9 | 93.9 | > 100 | 19.9 | > 100 | 26.8 | 30.5 µM | > 100 |  |  |  |
| O=c1c(O)c(-c2ccc(O)cc2O)oc2cc(O)cc(O)c12 | > 100 | > 100 | > 100 | > 100 | > 100 | > 100 | > 100 | > 100 | > 100 | > 100 µM |  |  |  |  |
| O=c1[nH]c2ccc(C(F)(F)F)cc2nc1-c1ccccc1 | > 100 | > 100 | > 100 | > 100 | > 100 | > 100 | > 100 | > 100 | > 100 |  | > 100 |  |  |  |
| CSc1ccc2c(cc1=O)[C@@H](NC(C)=O)CCc1cc(O)c(O)c(O)c1-2 | > 100 | > 100 |  | 46.8 | 35.9 | 61.1 |  | > 100 | 32.4 | 35.5 µM | > 100 |  |  |  |
| O=c1c2ccccc2nc2n1NC(c1c(Cl)cccc1Cl)N2c1cccc(Cl)c1 (stereo not given) | > 100 | > 100 | > 100 | 12.5 | 19.1 | > 100 | 31 | > 100 | 4.24 | 6.73 µM | > 100 |  |  |  |
| O=C(O)CC(C(=O)O)c1ccccc1[N+](=O)[O-] (stereo not given) | > 100 | > 100 | > 100 | > 100 | > 100 | > 100 |  | > 100 | > 100 | > 100 µM | > 100 |  |  |  |
| CCN(CC)C(=S)SS(=O)(=O)c1ccccc1C(=O)O | > 100 | > 100 | > 100 | > 100 | > 100 | > 100 | > 100 | > 100 | > 100 | > 100 µM | > 100 |  |  |  |
| COC(CN(C)C(=O)C(C)NC(=O)c1ccccc1)OC (stereo not given) | > 100 | > 100 | > 100 | > 100 | > 100 | > 100 | > 100 | > 100 | > 100 | > 100 µM | > 100 |  |  |  |
| Cc1[nH]c2ncn3nc(C(Cl)(Cl)Cl)nc3c2c1Cc1ccccc1 | > 100 | > 100 |  | > 100 | > 100 | > 100 | > 100 | > 100 | > 100 | > 100 µM | > 100 |  |  |  |
| Cc1ccc(S(=O)ON2CCC(C(=O)O)(c3ccccc3)CC2)cc1 (stereo not given) | > 100 | > 100 | > 100 | > 100 | > 100 | > 100 | > 100 | > 100 | > 32.2 | > 100 µM | > 100 | > 100 |  |  |
| Clc1ccc(-c2nn3c(CCCCCCCCc4nnc5sc(-c6ccc(Cl)cc6)nn45)nnc3s2)cc1 | > 100 | > 83 | > 100 | > 100 | > 100 | > 94.7 | 52.6 | 60.3 | 60 | > 64.6 µM | 72.2 |  |  |  |
| COc1ccc2c(c1)C(N)CC2=O (stereo not given) | > 100 | > 100 | > 100 | > 100 | > 100 |  | > 100 | > 100 | > 100 | > 100 µM | > 100 |  |  |  |
| C=C1C(=O)O[C@@H]2[C@H]3O[C@]3(C)CCC=C(C)CC[C@@H]12 | 31.7 | 39.2 | 130 |  | 63.6 |  | 44.6 | 59.9 |  | 45.3 µM | 77.2 |  |  |  |
| O=C(NN=C1CCN(Cc2ccccc2)CC1)C(O)(c1ccccc1)c1ccccc1 | > 100 | > 100 |  |  | > 100 |  | > 100 | > 100 | > 100 | > 100 µM | > 100 |  |  |  |
| CC1NC(=O)CNC(=O)CNC(=O)C(Cc2ccc(O)cc2)NC(=O)C(C(C)C)NC(=O)C(C)NC1=O (stereo not given) (cyclo(GGAAVY); configuration not given here) | > 100 | > 100 | > 100 |  | > 100 |  | > 100 | > 100 |  | > 100 µM and 22.7 µM | > 100 |  | > 100 | > 100 |
| CC(=O)OCC1OC(On2ccccc2=S)C(OC(C)=O)C(OC(C)=O)C1OC(C)=O (stereo not given) | > 100 | > 100 | > 100 | > 100 | > 100 | > 100 | > 100 | 34.5 | > 100 | > 100 µM |  |  |  |  |
| C=C[C@@H]1OC(=O)O[C@H]1CO | > 100 | > 100 | > 100 | > 100 | > 100 | > 100 |  | > 100 | > 100 | > 100 µM | > 100 |  |  |  |
| O=C(Cn1c(=O)ccn(C2OC(CO)C(O)C2F)c1=O)c1ccc(F)cc1 (stereo not given) | > 100 | > 100 | > 100 | > 100 | > 100 | > 100 | > 100 | > 100 | > 100 |  | > 100 |  |  |  |
